Measurements taken from patent US9499467B2, “Ortho-fluoro substituted compounds for the treatment of metabolic diseases” (CALDAN THERAPEUTICS LIMITED, priority 2011, dated 2016).

Target: T1, GPR40 (Homo sapiens, UniProt O14842)
T1 construct: expressed in transfected cells
Experiment: Calcium mobilization in GPR40-transfected cells
Assay type: cell-based
Details: calcium mobilization in GPR40-transfed cells
Procedure: The compounds were tested for their ability to mobilize calcium in GPR40-transfed cells as described by Christiansen et al. (J. Med. Chem. 2011, 54, 6691-6703).

T1 sequence (O14842 whole entry): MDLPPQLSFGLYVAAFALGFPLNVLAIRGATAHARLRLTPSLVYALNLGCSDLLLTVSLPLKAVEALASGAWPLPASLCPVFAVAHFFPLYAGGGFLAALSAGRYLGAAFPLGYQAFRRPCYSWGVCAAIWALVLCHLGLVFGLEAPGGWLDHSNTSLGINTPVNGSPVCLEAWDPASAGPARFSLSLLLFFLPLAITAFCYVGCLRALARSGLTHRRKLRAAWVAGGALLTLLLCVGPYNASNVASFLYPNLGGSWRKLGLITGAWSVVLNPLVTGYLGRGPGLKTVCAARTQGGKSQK

| Compound | GPR40 activity (pEC50) |
| --- | --- |
| CS(=O)(=O)Cc1ccccc1C#Cc1ccc(CCC(=O)O)c(F)c1 [Example 8, 3-(2-Fluoro-4-((2-((methylsulfonyl)methyl)phenyl)ethynyl)phenyl)propanoic acid] | 5.84 |
| C/C(C#Cc1ccc(CCC(=O)O)c(F)c1)=C/CO [Example 12, (Z)-3-(2-Fluoro-4-(5-hydroxy-3-methylpent-3-en-1-yn-1-yl)phenyl)propanoic acid] | 6.37 |
| Cc1ccccc1C#Cc1ccc(CCC(=O)O)c(F)c1 [Example 5, 3-(2-Fluoro-4-(o-tolylethynyl)phenyl)propanoic acid] | 7.48 |
| O=C(O)CCc1c(F)cc(C#Cc2ccccc2)cc1F [Example 10, 3-(2,6-Difluoro-4-(phenylethynyl)phenyl)propanoic acid] | 6.85 |
| C=C(C)C#Cc1ccc(CCC(=O)O)c(F)c1 [Example 2, 3-(2-Fluoro-4-(3-methylbut-3-en-1-yn-1-yl)phenyl)propanoic acid] | 7.09 |
| C/C=C(/C)C#Cc1ccc(CCC(=O)O)c(F)c1 [Example 3, (Z)-3-(2-Fluoro-4-(3-methylpent-3-en-1-yn-1-yl)phenyl)propanoic acid] | 7.69 |
| O=C(O)CCc1ccc(C#Cc2cc(F)ccc2C(F)F)cc1F [Example 14, 3-(4-((2-(Difluoromethyl)-5-fluorophenyl)ethynyl)-2-fluorophenyl)propanoic acid] | 7.74 |
| O=C(O)CCc1ccc(C#Cc2ccccc2)cc1F [Example 1, 3-(2-Fluoro-4-(phenylethynyl)phenyl)propanoic acid] | 7.48 |
| Cc1ccc(C#N)cc1C#Cc1ccc(CCC(=O)O)c(F)c1 [Example 7, 3-(4-((5-Cyano-2-methylphenyl)ethynyl)-2-fluorophenyl)propanoic acid] | 7.77 |
| CS(=O)(=O)Cc1cccc(C#Cc2ccc(CCC(=O)O)c(F)c2)c1 [Example 9, 3-(2-Fluoro-4-((3-((methylsulfonyl)methyl)phenyl)ethynyl)phenyl)propanoic acid] | 5.71 |
| C/C=C(\C)C#Cc1ccc(CCC(=O)O)c(F)c1 [Example 4, (E)-3-(2-Fluoro-4-(3-methylpent-3-en-1-yn-1-yl)phenyl)propanoic acid] | 7.43 |
| O=C(O)CCc1ccc(C#Cc2cc(Cl)cc(Cl)c2)cc1F [Example 13, 3-(4-((3,5-Dichlorophenyl)ethynyl)-2-fluorophenyl)propanoic acid] | 7.42 |
| O=C(O)CCc1ccc(C#Cc2ccccc2)c(F)c1 [Example 11, 3-(3-Fluoro-4-(phenylethynyl)phenyl)propanoic acid] | 6.84 |
